Measurements taken from the supplement of paper PMC11451515.

Experiments:
Details in all cases: 48 h
[1] = test system: SEM cells; experiment: AUC of viability dose-response curve (% viability x log10 dose units); higher = less sensitive
Method in brief: (§1)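 Area under the curve was integrated by trapezoidal rule from a log-logistic fit of normalised viability, with curves exceeding full viability scaled and quality-control failures removed. The fit had four parameters over log10 doses. Viability came from CellTiter-Glo One luminescence, normalised per plate to DMSO and cell-free wells, after leukemia cells adapted to each medium (500 or 1000 cells/well, 1536-well plates) were exposed to library compounds in DMSO for 48 h at 37°C. The 11 threefold doses ran from 47 μM to 0.79 nM.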

[2] = test system: NOMO1; experiment: as above
Method in brief: as §1

[3] = test system: P12-Ichikawa; experiment: as above
Method in brief: as §1

[4] = test system: SEM cells; experiment: cell viability relative to DMSO control; higher = less cytotoxic
Method in brief: (§2)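 Viability is a per-plate percentage relative to DMSO wells, with cell-free wells as background. CellTiter-Glo One luminescence was read after 48 h at 37°C on 1536-well plates (5 μl) of NOMO1 or SEM (500 cells/well) or P12-Ichikawa (1000 cells/well) leukemia cells. The cells had been adapted for at least four passages in each medium and pin-dosed with library compounds in DMSO from 47 μM to 0.79 nM in 11 threefold steps.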

[5] = test system: NOMO1; experiment: as above
Method in brief: as §2

CC(C)C[C@@H](C=O)NC(=O)[C@H](CC(C)C)NC(=O)[C@H](CC(C)C)NC(=O)OCc1ccccc1
AUC of viability dose-response curve
Details | [1] | [2] | [3]
HPLM + 10% dialyzed FBS | 305 | 337 | 364
RPMI 5 mM glucose + 10% FBS | 279 | 312 | 324
RPMI 5 mM glucose + 10% dialyzed FBS | 315 | 351 | 361

cell viability [%]
Details | [4] | [5]
HPLM + 10% dialyzed FBS, 0.000781 µM | 108 | –
HPLM + 10% dialyzed FBS, 0.00234 µM | 115 | –
HPLM + 10% dialyzed FBS, 0.00702 µM | 126 | –
HPLM + 10% dialyzed FBS, 0.0211 µM | 122 | –
HPLM + 10% dialyzed FBS, 0.0632 µM | 148 | –
HPLM + 10% dialyzed FBS, 0.19 µM | 139 | –
HPLM + 10% dialyzed FBS, 0.569 µM | 81.8 | –
HPLM + 10% dialyzed FBS, 1.71 µM | 9.69 | –
HPLM + 10% dialyzed FBS, 5.12 µM | 9.22 | –
HPLM + 10% dialyzed FBS, 15.4 µM | 8.52 | –
HPLM + 10% dialyzed FBS, 46.1 µM | 8.11 | –
RPMI 5 mM glucose + 10% FBS, 0.000781 µM | 111 | 115
RPMI 5 mM glucose + 10% FBS, 0.00234 µM | 131 | 119
RPMI 5 mM glucose + 10% FBS, 0.00702 µM | 124 | 130
RPMI 5 mM glucose + 10% FBS, 0.0211 µM | 143 | 143
RPMI 5 mM glucose + 10% FBS, 0.0632 µM | 124 | 134
RPMI 5 mM glucose + 10% FBS, 0.19 µM | 127 | 128
RPMI 5 mM glucose + 10% FBS, 0.569 µM | 10.8 | 78.1
RPMI 5 mM glucose + 10% FBS, 1.71 µM | 9.94 | 42.1
RPMI 5 mM glucose + 10% FBS, 5.12 µM | 10 | 10.2
RPMI 5 mM glucose + 10% FBS, 15.4 µM | 9.17 | 8.45
RPMI 5 mM glucose + 10% FBS, 46.1 µM | 8.59 | 7.38

Cc1cccc(Nc2nc(-c3ccncc3)cs2)c1
AUC of viability dose-response curve
Details | [1] | [2] | [3]
HPLM + 10% dialyzed FBS | 466 | 442 | 470
RPMI 5 mM glucose + 10% FBS | 464 | 466 | 469
RPMI 5 mM glucose + 10% dialyzed FBS | 454 | 473 | 465

cell viability [%]
Details | [4] | [5]
HPLM + 10% dialyzed FBS, 0.000781 µM | 86.5 | 96.3
HPLM + 10% dialyzed FBS, 0.00234 µM | 115 | 138
HPLM + 10% dialyzed FBS, 0.00702 µM | 88.8 | 121
HPLM + 10% dialyzed FBS, 0.0211 µM | 98.3 | 142
HPLM + 10% dialyzed FBS, 0.0632 µM | 99.5 | 137
HPLM + 10% dialyzed FBS, 0.19 µM | 126 | 140
HPLM + 10% dialyzed FBS, 0.569 µM | 104 | 111
HPLM + 10% dialyzed FBS, 1.71 µM | 117 | 145
HPLM + 10% dialyzed FBS, 5.12 µM | 118 | 142
HPLM + 10% dialyzed FBS, 15.4 µM | 112 | 136
HPLM + 10% dialyzed FBS, 46.1 µM | 59.5 | 134
RPMI 5 mM glucose + 10% dialyzed FBS, 0.000781 µM | 92.4 | 122
RPMI 5 mM glucose + 10% dialyzed FBS, 0.00234 µM | 141 | 121
RPMI 5 mM glucose + 10% dialyzed FBS, 0.00702 µM | 84 | 128
RPMI 5 mM glucose + 10% dialyzed FBS, 0.0211 µM | 116 | 123
RPMI 5 mM glucose + 10% dialyzed FBS, 0.0632 µM | 109 | 125
RPMI 5 mM glucose + 10% dialyzed FBS, 0.19 µM | 125 | 135
RPMI 5 mM glucose + 10% dialyzed FBS, 0.569 µM | 134 | 134
RPMI 5 mM glucose + 10% dialyzed FBS, 1.71 µM | 130 | 129
RPMI 5 mM glucose + 10% dialyzed FBS, 5.12 µM | 123 | 128
RPMI 5 mM glucose + 10% dialyzed FBS, 15.4 µM | 96.3 | 134
RPMI 5 mM glucose + 10% dialyzed FBS, 46.1 µM | 46.2 | 107

C=CC[C@@H]1/C=C(\C)C[C@H](C)C[C@H](OC)[C@H]2O[C@@](O)(C(=O)C(=O)N3CCCC[C@H]3C(=O)O[C@H](/C(C)=C/[C@@H]3CC[C@@H](O)[C@H](OC)C3)[C@H](C)[C@@H](O)CC1=O)[C@H](C)C[C@@H]2OC
AUC of viability dose-response curve
Details | [1] | [2] | [3]
HPLM + 10% dialyzed FBS | 400 | 412 | 466
RPMI 5 mM glucose + 10% FBS | 376 | 453 | 448
RPMI 5 mM glucose + 10% dialyzed FBS | 362 | 436 | 449

[4], HPLM + 10% dialyzed FBS
Details | cell viability [%]
0.000781 µM | 102
0.00234 µM | 125
0.00702 µM | 131
0.0211 µM | 123
0.0632 µM | 115
0.19 µM | 111
0.569 µM | 107
1.71 µM | 74.9
5.12 µM | 60.9
15.4 µM | 30.8
46.1 µM | 100
